Results taken from patent US20240109881A1, “Heteroaryl Compounds as Ligand Directed Degraders of IRAK4” (Bristol-Myers Squibb Company, priority 2022, published 2024).

Target: T1, IRAK4 (Homo sapiens, UniProt Q9NWZ3)
T1 construct: endogenous in cells; host or cells: THP-1 cells
T1 sequence (Q9NWZ3 1-460): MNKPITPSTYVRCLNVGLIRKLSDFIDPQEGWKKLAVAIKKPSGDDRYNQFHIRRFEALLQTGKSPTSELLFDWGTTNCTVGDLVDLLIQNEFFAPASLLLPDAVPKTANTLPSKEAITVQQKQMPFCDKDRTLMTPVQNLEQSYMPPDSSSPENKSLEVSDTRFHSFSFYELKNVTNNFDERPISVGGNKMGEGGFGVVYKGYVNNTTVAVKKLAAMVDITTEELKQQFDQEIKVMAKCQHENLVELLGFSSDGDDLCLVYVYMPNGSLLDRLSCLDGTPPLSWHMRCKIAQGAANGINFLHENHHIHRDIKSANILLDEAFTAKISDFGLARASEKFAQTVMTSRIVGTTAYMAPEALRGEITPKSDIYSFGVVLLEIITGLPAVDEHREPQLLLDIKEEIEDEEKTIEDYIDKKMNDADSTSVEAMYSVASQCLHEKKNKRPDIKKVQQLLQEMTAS
Assay: LVL THP1 HTRF (THP1 Homogeneous Time Resolved Fluorescence)
Format: cell-based
Settings: THP1 cells, 18 h incubation with compound; for DC50: read-out: LVL THP1 HTRF EC50
Protocol: Cell culture media was prepared in a tissue culture hood in a sterile environment by adding 10% FBS and 1% Penicillin Streptomycin to 500 mL no phenol red RPMI 1640 media. The media was filtered through a Nalgene Bottle Top Filter and stored at 4° C.
For Homogenous Time Resolved Fluorescence (HTRF) assays, a Cisbio HTRF kit was used, which included: Lysis Buffer #1 4×, Blocking Reagent #3 100×, 20× Antibody 1 (Anti-IRAK4 d2), 20× Antibody 2 (Anti-IRAK4 k), and Detection Buffer.
The THP1 plates were prepared by the following method. For each dosing plate, a duplicate for CTG assay was prepared. Two THP-1 T-175 flasks could be used to plate one 384 well plate. The cells were collected from two T-175 flasks into 200 mL centrifuge tubes and spun down at 1200 rpm for 10 min. The supernatant was removed completely and cells were resuspended in 7.5 mL cell culture media. To 5 μL of the cell suspension was added 25 μL of media and 30 μL of Trypan Blue stain. The cells were counted using countess (automated cell counter, Thermo Fisher Scientific) twice and the viability and live cell count was recorded. The actual cell count was […] the live cell count. Based on the count, a cell suspension was prepared in colorless RPMI media for a final concentration of 7.5e6 cells/mL. Using Standard cassette multidrop combi, 20 μL of the 7.5e6 cells/mL cell stock was added to entire 384 well plate but for top half of column 1 (negative control) The multidrop combi was always primed to achieve a steady flow and washed after use with 20 mL de-ionized water followed by 20 mL alcohol. The cells were incubated in 5% CO2 incubator at 37° C.
Dosing was conducted using the following method. To dose assay plates and CTG plate was added 20 nL of compounds in DMSO using Echo (Beckman Coulter), and the plates were incubated at 37° C. for 18 h. The compound plates were spun at 1200 rpm for 1 min before dosing. The compound plate was sealed and properly stored during incubation.
After dosing, an HTRF assay was conducted using the following method. The treatment plates (IRAK4_HTRF) were centrifuged at 600 g for 10 min. Using CyBio Felix, Automated liquid handler (Analytikjena), 13 μL cell culture media was removed. To all columns, 7.5 μL lysis buffer was added, and an additional 7.5 μL of lysis buffer was added to column 1(top half, negative control). The plate was incubated on a shaker at room temperature for 2 h. The plate was spun down at 600 g for 5 min. Custom 20×IRAK4 Antibody obtained from CISBIO Anti-IRAK4-d2 (acceptor Ab) and Anti-IRAK4-K (donor Ab) were diluted to 1× antibody mix Using a multichannel repeater, 4 μL of 1× antibody mix was added to each wellThe plate was spun down at 600 g for 5 min and incubated in the dark at room temperature for 18 h The next day (after 18 hrs), HTRF assay plate was spun down at 600 g for 5 min and read at 665/615 nm using a Envision plate reader.

Compound	LVL THP1 HTRF YMIN [%]	DC50 [µM]
C[C@H](C#N)Nc1cc(-n2ncc3cc(C#N)cnc32)ncc1-n1cc(C2CCC(CCN3CC[C@H]4[C@@H]3CCN4c3ccc(N4CCC(=O)NC4=O)cc3)CC2)nn1 (single isomer, unassigned) [P-328]	2.5	0.0025
CC1CN(CC[C@H]2CC[C@H](c3cn(-c4cnc(-n5ncc6cc(C#N)cnc65)cc4N[C@H](C)C#N)nn3)CC2)CCC1c1ccc([C@@]2(F)CCC(=O)NC2=O)cc1 (single isomer, unassigned) [P-331]	−2.2	0.0018
CC1CN(CC[C@H]2CC[C@H](c3cn(-c4cnc(-n5ncc6cc(C#N)cnc65)cc4N[C@H](C)C#N)nn3)CC2)CCC1c1ccc([C@@]2(F)CCC(=O)NC2=O)cc1 (single isomer, unassigned) [P-332]	20.7	0.261
CC1CN(CC[C@H]2CC[C@H](c3cn(-c4cnc(-n5ncc6cc(C#N)cnc65)cc4N[C@H](C)C#N)nn3)CC2)CCC1c1ccc([C@@]2(F)CCC(=O)NC2=O)cc1 (single isomer, unassigned) [P-333]	26.8	0.334
C[C@H](C#N)Nc1cc(-n2ncc3cc(C#N)cnc32)ncc1-n1cc([C@H]2CC[C@H](CCN3CCC(c4ccc([C@@]5(F)CCC(=O)NC5=O)cc4)CC3)CC2)nn1 (single isomer, unassigned) [P-337]	2.7	0.0038
C[C@H](C#N)Nc1cc(-n2ncc3cc(C#N)cnc32)ncc1-n1cc([C@H]2CC[C@H](CCN3CCC(c4ccc([C@@]5(F)CCC(=O)NC5=O)cc4)CC3)CC2)nn1 (single isomer, unassigned) [P-338]	61.2	0.501
C[C@H](C#N)Nc1cc(-n2ncc3cc(C#N)cnc32)ncc1-n1cc([C@H]2CC[C@](O)(CCN3CCN(c4ccc(N5CCC(=O)NC5=O)cc4)CC3)CC2)nn1 (single isomer, unassigned) [P-373]	72.5	1
CC1CN(CC[C@H]2CC[C@H](c3cn(-c4cnc(-n5ncc6cc(C#N)cnc65)cc4N[C@H](C)C#N)nn3)CC2)CCC1c1ccc([C@@]2(F)CCC(=O)NC2=O)cc1 (single isomer, unassigned) [P-390]	−1.8	0.0028
C[C@H](C#N)Nc1cc(-n2ncc3cc(C#N)cnc32)ncc1-n1cc([C@H]2CC[C@H](CCN3CCC(c4ccc(N5CCC(=O)NC5=O)cc4)C(F)C3)CC2)nn1 (single isomer, unassigned) [P-400]	7.8	0.0279
C[C@H](C#N)Nc1cc(-n2ncc3cc(C#N)cnc32)ncc1-n1cc([C@H]2CC[C@H](CCN3CCC[C@@H]4[C@H]3CCCN4c3ccc([C@@]4(C)CCC(=O)NC4=O)cc3)CC2)nn1 (single isomer, unassigned) [P-414]	71.4	2.35
C[C@H](C#N)Nc1cc(-n2ncc3cc(C#N)cnc32)ncc1-n1cc([C@H]2CC[C@H](CCN3CC[C@H]4[C@@H]3CCN4c3ccc([C@@]4(C)CCC(=O)NC4=O)nc3)CC2)nn1 (single isomer, unassigned) [P-415]	37.5	0.192
C[C@H](C#N)Nc1cc(-n2ncc3cc(C#N)cnc32)ncc1-n1cc([C@H]2CC[C@H](CCN3CCC(c4ccc([C@@]5(C)CCC(=O)NC5=O)cc4)C(F)(F)C3)CC2)nn1 (single isomer, unassigned) [P-417]	1.8	0.0514
C[C@H](C#N)Nc1cc(-n2ncc3cc(C#N)cnc32)ncc1-n1cc([C@H]2CC[C@H](CCN3CC[C@H]4[C@@H]3CCN4c3ccc([C@@]4(C)CCC(=O)NC4=O)nc3)CC2)nn1 (single isomer, unassigned) [P-418]	1.8	0.0149
C[C@H](C#N)Nc1cc(-n2ncc3cc(C#N)cnc32)ncc1-n1cc([C@H]2CC[C@](O)(CCN3CCN(c4ccc([C@@]5(C)CCC(=O)NC5=O)nc4)CC3)CC2)nn1 (single isomer, unassigned) [P-419]	−0.8	0.0316
